Measurements published in patent publication US11192920B2, “Peptides for binding to CD44v6 and use thereof” (KYUNGPOOK NATIONAL UNIVERSITY INDUSTRY-ACADEMIC COOPERATION …, priority 2017, dated 2021).

How the values were obtained:
[1] = test system: CD44 variant 6 expressing cells MDA-MB231, HELA, 4T1 and PANC-1; conditions: CD44v6 expressing cells
Experimental: (§1) After complete adhesion, the cell culture medium was replaced with fresh medium containing FITC labeled peptides (10 μM) and then the cells were incubated at 37° C. for 1 h and cells were washed with PBS for 3-5 min (thrice) and stained with CD44v6 antibody (Santa cruz), followed by Alexa 594-labeled goat anti-mouse IgG secondary antibody.
(§2) To screen CD44v6-binding peptides, the present inventors first prepared HEK-293 cells transfected with CD44v6-GFP plasmid by transient transfection. […] Twenty phage clones were randomly picked from the third, fourth, and fifth rounds and the peptide-coding DNA inserts of the phage clones were sequenced.

MCF-7 = conditions: CD44v6 non-expressing cells
Experimental: as §1, §2

[2] = test system: c-Met and Erk phosphorylation in MDA-MB-231 cells; conditions: MDA-MB-231, HGF 25-50 ng/mL; peptides 5 ug/ml each, combination 10 μg/ml
Experimental: Serum-starved cells (24 hours) were induced with the growth factor HGF (25-50 ng/mL), at 37° C. for 10 min. Where indicated, the cells were treated with a CD44v6 specific peptide or a control peptide (50 μg/ml) at 37° C. for 10 min before induction and cells were washed with ice-cold phosphate-buffered saline (PBS). To detect activated Erk and activated c-Met, cells were lysed in boiling sodium dodecyl sulfate (SDS) sample buffer containing 100 mM dithiothreitol (DTT) and subjected to Western blot analysis using antibodies against phosphorylated Erk and phosphorylated c-Met. The loading control was performed on the same blot, stripped (62.5 mM Tris, pH 6.8, 2% SDS, 0.8% DTT), and probed with the Erk and c-Met antibodies. Blots were stained using the enhanced chemiluminescence system (Thermo Fisher Scientific). Bands in Western blot analysis were quantified with the program ImageJ (National Institutes of Health).
In the present invention, MDA-MB-231 and 4T1 cells were serum-starved (24 hours) and were induced with the growth factor HGF (25-50 ng/mL) at 37° C. for 10 min. The cells were treated with a CD44v6 specific peptide or a control peptide (100 ng/ml) at 37° C. for 10 min before induction. To detect activated Erk and activated c-Met, cells were lysed and subjected to Western blot analysis using antibodies against phosphorylated Erk and phosphorylated c-Met. […]

wild-type CD44 = wild-type CD44 (Homo sapiens, UniProt P16070); conditions: biotinylated peptide + avidin bead + cell lysate
Experimental: (§3) Biotinylated CD44v6 peptides was incubated with monomer avidin magnetic beads (Bioclone Inc.) for 30-60 min at room temperature with gentle rotation to be used for peptide pulldown, prior to incubation with cell lysates. Cells were lysed using cell lysis reagent (Thermo scientific) with protease inhibitors. After the first incubation of biotinylated peptide+avidin bead (complex 1) were washed with PBS and complex is incubated with cell lysate for 30-60 min at room temperature with gentle rotation. Bound biotinylated peptide+avidin bead+cell lysate (complex 2) were eluted by 1× blocking buffer/elution buffer for 5-10 min incubation after elution and the elute was subjected to western blot analysis using CD44v6 antibody (Millipore) to pull down the specific protein.
(§4) Biotinylated peptide+avidin bead+cell lysate (complex 2) were eluted for western blot analysis using CD44v6 antibody to pull down the specific protein.

CD44v6 = conditions: biotinylated peptide + avidin bead + cell lysate
Experimental: as §3, §4

[3] = test system: CD44v6 silenced MDA-MB-231 cells; conditions: for binding of FITC labelled peptide after silencing of CD44v6 gene (flow cytometry): MDA-MB-231, CD44v6 siRNA; for binding of FITC labelled peptide after siRNA treatment (immunofluorescence staining): MDA-MB-231, siRNA 100 nmol
Experimental: Control siRNA (50-[…] (dTdT) 30) and glyceraldehyde-3 phosphate dehydrogenase (GAPDH) siRNA (50-[…] (dTdT)-30) were also purchased from Bioneer, Daejeon, Korea. The transfection was performed using Lipofectamine 2000 (Invitrogen, Karlsruhe, Germany). Two rounds of transfection with an interval of 24 h between were performed. 48 h after the first transfection the cells were serum-starved for 24 h and then subjected to further treatment.
MDA-MB-231 cells were serum-starved for 24 hours and then subjected to further treatment. SiRNAs v6-1 and v6-2 transfected and kept it for different time interval to achieve the CD44v6 expression inhibition.

c-Met = conditions: biotinylated peptide + avidin bead + cell lysate
4T1 orthotopic mice = conditions: anti-CD44v6 antibody staining
Experimental: To analyze ex vivo organ distribution, animals were euthanized at 6 h post-injection with CO2. All major organs (liver, kidney, spleen, heart, and lung) along with tumor tissues were isolated and washed in PBS and ex vivo fluorescence images were taken using the IVIS Lumina III imaging system. Fluorescence intensity within the region of interest (ROI) of each organs was analyzed. Tumor tissues were further fixed with 4% paraformaldehyde overnight and rapidly frozen. Tissue slices (8-μm thick) were prepared using a cryo-microtome and stained with CD44v6 antibody (Santa Cruz), followed by Alexa 594-labeled goat anti-mouse IgG secondary antibody. […]
In vivo fluorescence images were taken before or after injection at various time points (1, 2, 4 and 6 h, respectively) with flamma 675 was injected at the same concentration and method. […]
Ex vivo fluorescence images of excised tumor and organs collected at 6 h post-injection. All major organs (liver, kidney, spleen, heart, and lung) along with tumor tissues were isolated and washed in PBS and ex vivo fluorescence images were taken (n=3) with FPR-675 fluorophore excitation at 675 nm and emission at 698 nm. Fluorescence intensity within the region of interest (ROI) of each organ was analyzed.

MDA-MB-231 cells = conditions: MDA-MB-231, dose-dependent
MDA-MB-231 tumor model = assay: MDA-MB-231 lung metastasis model; assay type: in vivo, mice; conditions: peptide i.v. 14.2 mg/g 3 times a week for 3 weeks; crizotinib oral 25 mg/kg; vs saline and control peptide
Experimental: (§5) For animal models, 6-week-old to 8-week-old Balb/c female mice were purchased from Orient Bio. Mice were cared for and maintained in conformance with the Guidelines of the Institutional Animal Care and Use Committee (IACUC) of Kyungpook National University. Tumors were prepared by injecting 1×10^6 MDA-MB-231 cells via tail vein to develop lung metastatic model in Balb/c female nude mice and 1×10^6 4T1 cells into the lower left mammary fat pad of Balb/c wild type female mice.
(§6) Tumor-bearing mice were subjected to randomization and grouping when the size of the tumors reached approximately 100 mm^3. Each peptide was intravenously injected via the tail vein of mice ([…] of body weight, 3 times a week for 3 weeks). Crizotinib was given through orally (25 mg/kg of body weight, three times a week for 3 weeks) based on a previous study. Tumor size was measured using a digital caliper, and tumor volume was calculated using the following formula: Volume=(L×W×H)/2 (L: length, longest dimension, W: width, shorter dimension, parallel to the mouse body, and H: height, perpendicular to the length and width). Mice were checked for tumor ulceration. At the end of the treatment, the mice were sacrificed, and the lung and liver were isolated and checked for metastatic tumor masses.
MDA-MB231-luc cells (1×10^6 in 0.1 ml PBS) were injected into the lateral tail vein of female nude mice. The mice were then segregated into groups (n=10 per group) based on initial IVIS image. Starting from day 0, mice were administered CD44v6 peptides by intravenously injected via the tail vein of mice ([…] of body weight, 3 times a week for 3 weeks). After the last IVIS imaging, mice were euthanized and lung tissues were removed from each mouse for metastatic tumor masses immunohistochemical analyses.
(§7) At the end of the treatment, mouse blood was collected and hematological factors were analyzed by DGMIF (Daegu-Gyeongbuk Medical Innovation Foundation) (Daegu, Korea).
CD44v6 Peptides was stable without degradation for at least 24 hours in the presence of serum.

MDA-MB-231 xenograft = conditions: anti-CD44v6 antibody staining
Experimental: Tumor tissues were further fixed with 4% paraformaldehyde overnight and rapidly frozen. Tissue slices (8-μm thick) were prepared using a cryo-microtome and stained with CD44v6 antibody (Santa Cruz), followed by Alexa 594-labeled goat anti-mouse IgG secondary antibody.

4T1 tumor model = assay: Anti-tumor therapy in 4T1 tumor model; assay type: in vivo, mice; conditions: for tumor and metastatic growth (bioluminescence imaging): peptide i.v. 14.2 mg/kg thrice a week, crizotinib oral 25 mg/kg thrice a week, vs saline
Experimental: as §5, §6, §7
In vivo anti-tumor activity was further evaluated in 4T1 orthotopic mice models. In relevant with the biodistribution and pharmacokinetic results, in vivo therapy was started by administrating 14.2 mg/kg thrice a week via intravenous injection of CD44v6 peptides and 25 mg/kg crizotinib thrice a week orally.

Chain of CD44v6 (P16070 386-428 limits assumed): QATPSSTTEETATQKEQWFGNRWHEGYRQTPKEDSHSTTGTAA
Chain of wild-type CD44 (P16070 21-361 isoform P16070-12 limits assumed): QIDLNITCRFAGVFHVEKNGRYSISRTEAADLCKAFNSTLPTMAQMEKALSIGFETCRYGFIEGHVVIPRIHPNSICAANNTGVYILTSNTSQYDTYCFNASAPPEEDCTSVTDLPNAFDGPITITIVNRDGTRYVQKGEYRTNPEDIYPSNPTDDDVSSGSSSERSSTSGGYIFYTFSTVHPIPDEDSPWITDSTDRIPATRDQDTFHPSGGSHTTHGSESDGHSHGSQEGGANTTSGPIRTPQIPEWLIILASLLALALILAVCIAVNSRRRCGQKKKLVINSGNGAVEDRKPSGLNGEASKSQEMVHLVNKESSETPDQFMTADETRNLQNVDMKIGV

Row | Compound | binding to MDA-MB-231, 4T1 and PANC-1 [1] | binding to MCF-7 (MCF-7) | phosphorylation of c-Met and its downstream target Erk [2] | pull down of wild-type CD44 (wild-type CD44) | pull down of CD44v6 (CD44v6) | binding of FITC labelled peptide after silencing of CD44v6 gene (flow cytometry) [3] | binding of FITC labelled peptide after siRNA treatment (immunofluorescence staining) [3] | pull down of c-Met (c-Met) | immunohistochemical examination of tumor tissues (4T1 orthotopic mice) | binding of FITC labelled peptide after pre-treatment with anti-CD44v6 blocking antibody (MDA-MB-231 cells) | metastasis (bioluminescence imaging) (MDA-MB-231 tumor model) | immunohistochemical examination of tumor tissues (MDA-MB-231 xenograft) | tumor and metastatic growth (bioluminescence imaging) (4T1 tumor model) | binding of FITC labelled peptide after pre-treatment with anti-CD44v6 blocking antibody (MCF-7 cells) | tumor growth (tumor volume) (4T1 tumor model; 4T1 bearing mice)
1 | CNLNTIDTC [v6Pep-1] | bind specifically | did not show specific binding | drastically reduced the phosphorylation | not pulled down | pulled down | binding got inhibited | negligible binding | pulled down | co-localized with CD44v6 | significantly reduced the binding | inhibited metastatic growth | co-localized with CD44v6 | slightly inhibited tumor and metastatic growth | minimal effect | –
2 | C[C@@H](Oc1cc(-c2cnn(C3CCNCC3)c2)cnc1N)c1c(Cl)ccc(F)c1Cl [crizotinib, reference compound] | – | – | – | – | – | – | – | – | – | – | inhibited metastatic growth | – | slightly inhibited tumor and metastatic growth | – | Slight reduction of tumor volume
3 | CNEWQLKSC [v6Pep-2] | bind specifically | did not show specific binding | drastically reduced the phosphorylation | not pulled down | pulled down | binding got inhibited | negligible binding | – | co-localized with CD44v6 | significantly reduced the binding | inhibited metastatic growth | co-localized with CD44v6 | slightly inhibited tumor and metastatic growth | minimal effect | –
